Laboratory results reported in US10874743B2, “IRAK degraders and uses thereof” (Kymera Therapeutics, Inc., priority 2017, dated 2020).
pEC50: −log10 of the molar value.

Assays:
Assay type in all cases: cell-based
IRAK4 [1] = biological target: T1, IRAK4 (Homo sapiens, UniProt Q9NWZ3); test: OCI-LY-10 MSD assay for IRAK4 DC50; set-up: endogenous in cells; host or cells: OCI-LY10; conditions: OCI-LY10 cells, 4 hr incubation, concentration required to degrade 50% of protein
T1 sequence (Q9NWZ3 1-460): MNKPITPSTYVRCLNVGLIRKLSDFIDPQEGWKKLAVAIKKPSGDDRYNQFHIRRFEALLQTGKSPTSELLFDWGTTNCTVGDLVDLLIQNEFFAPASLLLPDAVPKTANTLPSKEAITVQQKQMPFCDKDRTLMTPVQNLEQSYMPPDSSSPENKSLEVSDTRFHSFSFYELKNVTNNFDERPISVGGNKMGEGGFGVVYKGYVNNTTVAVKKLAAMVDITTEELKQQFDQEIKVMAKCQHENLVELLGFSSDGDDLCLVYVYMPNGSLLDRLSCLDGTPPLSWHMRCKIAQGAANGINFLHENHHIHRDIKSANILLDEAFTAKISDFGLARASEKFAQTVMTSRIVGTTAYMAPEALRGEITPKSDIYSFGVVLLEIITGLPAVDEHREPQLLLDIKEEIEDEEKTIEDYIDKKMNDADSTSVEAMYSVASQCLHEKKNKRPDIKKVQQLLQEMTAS
Summary of the method: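 OCI-Ly10 cells were exposed to compound for 4 hr across a 3-fold, 8-point dilution series. Lysates were made in RIPA buffer, and IRAK4 remaining was measured by MSD sandwich immunoassay with anti-IRAK4 capture and detection antibodies. DC50 was taken from a four-parameter logistic fit.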

IRAK4 [2] = biological target: T1, IRAK4; test: OCI-LY-10 degradation assay (western blot, % IRAK4 degraded after 4 hours); set-up: endogenous in cells; host or cells: OCI-LY10; conditions: OCI-LY10 cells, 4 hours; for OCI-LY10 % IRAK4 Degradation (0.01 uM): 0.01 uM compound; for OCI-LY10 % IRAK4 Degradation (0.1 uM): 0.1 uM compound; for OCI-LY10 % IRAK4 Degradation (1 uM): 1 uM compound
Summary of the method: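 OCI-LY10 cells (RPMI-1640, 20% FBS, 55 μM 2-ME) treated with compound at 0.003-10 μM final for 4 h at 37° C, then lysed in RIPA buffer. IRAK4 level read by fluorescent western blot (20-25 μg protein) and binned as % degraded: A >50%, B >20-50%, C <20%.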

OCI-LY10 cells = test: OCI-LY-10 CTG cell viability assay (EC50); conditions: Homo sapiens, 96 h, CellTiter-Glo cell viability, 4 days incubation, top concentration 10 μM, read-out: OCI-LY10 IRAK4 EC50
Method: A CTG cell viability assay using OCI-LY-10 cells was run to determine compound-mediated cell viability (EC50).
Compound-mediated viability effect on OCI-LY10 was quantitatively determined using the CellTiter-Glo® Luminescent Cell Viability Assay kit from Promega (Catalog number G7570) following manufacturer's recommended procedures. […] Compounds were then added to the assay plate with final top concentration of 10 μM and 1:3 dilution series with total of 9 doses. The final DMSO concentration was normalized to 0.2%. The assay plates were incubated at 37° C. for 4 days under 5% CO2. Then the assay plate was equilibrated at room temperature for 10 minutes. […] The data was then analyzed by software Prism 7.0 from GraphPad and the dose response curves were fit using a three-parameter logistic equation to calculate EC50.

SMILES | DC50 (IRAK4 [1]) | OCI-LY10 % IRAK4 Degradation (0.01 uM) (IRAK4 [2]) | OCI-LY10 % IRAK4 Degradation (0.1 uM) (IRAK4 [2]) | OCI-LY10 % IRAK4 Degradation (1 uM) (IRAK4 [2]) | pEC50 (OCI-LY10 cells)
CN(CCCc1cccc2c1C(=O)N(C1CCC(=O)NC1=O)C2=O)Cc1ccc(-n2cc(NC(=O)c3coc(-c4ccnc(NCC(F)(F)F)c4)n3)c(C(F)F)n2)cc1 (centres unmarked) [I-360] | > 1000 nM | B (>20-50% degradation) | C (<20% degradation) | C (<20% degradation) | –
O=C1CCC(N2C(=O)c3ccc(CCCNCc4ccc(-n5cc(NC(=O)c6coc(-c7ccnc(NCC8CC8)c7)n6)c(C(F)F)n5)cc4)cc3C2=O)C(=O)N1 (centres unmarked) [I-371] | > 1000 nM | C (<20% degradation) | C (<20% degradation) | B (>20-50% degradation) | –
O=C1CCC(N2Cc3cc(NC4CCN(CCOCCOCCNCc5ccc(-n6cc(NC(=O)c7coc(-c8ccnc(NCC9CC9)c8)n7)c(C(F)F)n6)cc5)CC4)ccc3C2=O)C(=O)N1 (centres unmarked) [I-387] | > 1000 nM | C (<20% degradation) | C (<20% degradation) | B (>20-50% degradation) | –
O=C1CCC(N2C(=O)c3ccc(NC4CCN(CCOCCOCCOCCNCc5ccc(-n6cc(NC(=O)c7coc(-c8ccnc(NCC9CC9)c8)n7)c(C(F)F)n6)cc5)CC4)cc3C2=O)C(=O)N1 (centres unmarked) [I-389] | 500 to 1000 nM | C (<20% degradation) | C (<20% degradation) | A (>50% degradation) | –
O=C1CCC(N2Cc3cc(N4CCN(CCOCCOCCNCc5ccc(-n6cc(NC(=O)c7coc(-c8ccnc(NCC9CC9)c8)n7)c(C(F)F)n6)cc5)CC4)ccc3C2=O)C(=O)N1 (centres unmarked) [I-392] | 50 to 100 nM | B (>20-50% degradation) | A (>50% degradation) | A (>50% degradation) | –
O=C1CCC(N2C(=O)c3ccc(N4CCN(CCOCCNCc5ccc(-n6cc(NC(=O)c7coc(-c8ccnc(NCC9CC9)c8)n7)c(C(F)F)n6)cc5)CC4)cc3C2=O)C(=O)N1 (centres unmarked) [I-393] | 100 to 500 nM | C (<20% degradation) | A (>50% degradation) | A (>50% degradation) | –
CN(CCNCCCc1ccc2c(c1)C(=O)N(C1CCC(=O)NC1=O)C2=O)C(=O)c1ccc(-n2cc(NC(=O)c3coc(-c4ccnc(NCC5CC5)c4)n3)c(C(N)=O)n2)cc1 (centres unmarked) [I-397] | < 50 nM | B (>20-50% degradation) | A (>50% degradation) | A (>50% degradation) | –
Cn1c(=O)n(C2CCC(=O)NC2=O)c2ccc(CCCOCCOCCNC(c3ccc(-n4cc(NC(=O)c5coc(-c6ccnc(NCC7CC7)c6)n5)c(C(N)=O)n4)cc3)C(F)(F)F)cc21 (centres unmarked) [I-448] | – | – | – | – | 6.30 to 7.00
Cn1cc(NC(=O)c2coc(-c3ccnc(NCC(F)(F)F)c3)n2)c(C(=O)NCCOCCOCCOCCOCCCc2cccc3c2n(C)c(=O)n3C2CCC(=O)NC2=O)n1 (centres unmarked) [I-455] | – | – | – | – | < 6.00
Cn1cc(NC(=O)c2coc(-c3ccnc(NCC(F)(F)F)c3)n2)c(C(=O)NC2CCN(CCOCCOCCOCCOCCCc3cccc4c3n(C)c(=O)n4C3CCC(=O)NC3=O)CC2)n1 (centres unmarked) [I-457] | – | – | – | – | < 6.00
O=C1CCC(N2Cc3cc(CNC(=O)NCCOCCOCCNC(=O)n4cc(NC(=O)c5coc(-c6ccnc(NCC7CC7)c6)n5)c(C(F)F)n4)ccc3C2=O)C(=O)N1 (centres unmarked) [I-458] | – | – | – | – | 7.00 to 7.30
Cn1cc(NC(=O)c2coc(-c3ccnc(NCC(F)(F)F)c3)n2)c(C(=O)NCCOCCOCCOCCCc2cccc3c2n(C)c(=O)n3C2CCC(=O)NC2=O)n1 (centres unmarked) [I-464] | – | – | – | – | < 6.00
Cn1cc(NC(=O)c2cnn3ccc(N4CCN(C(=O)COCCOCCOCCOCCCc5cccc6c5n(C)c(=O)n6C5CCC(=O)NC5=O)CC4)nc23)c(C(F)F)n1 (centres unmarked) [I-465] | – | – | – | – | < 6.00
Cn1cc(NC(=O)c2cnn3ccc(N4CCN(C(=O)COCCOCCOCCOCCCc5ccc6c(c5)n(C)c(=O)n6C5CCC(=O)NC5=O)CC4)nc23)c(C(F)F)n1 (centres unmarked) [I-466] | – | – | – | – | < 6.00
Cn1cc(NC(=O)c2cnn3ccc(N4CCN(C(=O)COCCOCCOCCOCCNc5cccc6c5C(=O)N(C5CCC(=O)NC5=O)C6=O)CC4)nc23)c(C(F)F)n1 (centres unmarked) [I-467] | – | – | – | – | < 6.00
Cn1cc(NC(=O)c2cnn3ccc(N4CCN(C(=O)COCCOCCOCCNc5cccc6c5C(=O)N(C5CCC(=O)NC5=O)C6=O)CC4)nc23)c(C(F)F)n1 (centres unmarked) [I-468] | – | – | – | – | < 6.00

Further lines, results first:

DC50 (IRAK4 [1]) | OCI-LY10 % IRAK4 Degradation (0.01 uM) (IRAK4 [2]) | OCI-LY10 % IRAK4 Degradation (0.1 uM) (IRAK4 [2]) | OCI-LY10 % IRAK4 Degradation (1 uM) (IRAK4 [2]) | pEC50 (OCI-LY10 cells) | SMILES
50 to 100 nM | C (<20% degradation) | A (>50% degradation) | A (>50% degradation) | – | O=C1CCC(N2C(=O)c3cccc(OCc4cn(CCOCCOCCNCc5ccc(-n6cc(NC(=O)c7coc(-c8ccnc(NCC9CC9)c8)n7)c(C(F)F)n6)cc5)nn4)c3C2=O)C(=O)N1 (centres unmarked) [I-344]
> 1000 nM | C (<20% degradation) | C (<20% degradation) | B (>20-50% degradation) | – | O=C1CCC(N2C(=O)c3cccc(NCCOCCN4CC5(CN(CCOCCNCc6ccc(-n7cc(NC(=O)c8coc(-c9ccnc(NCC%10CC%10)c9)n8)c(C(F)F)n7)cc6)C5)C4)c3C2=O)C(=O)N1 (centres unmarked) [I-350]
100 to 500 nM | C (<20% degradation) | C (<20% degradation) | A (>50% degradation) | – | O=C1CCC(N2C(=O)c3ccc(NCCOCCN4CC5(CN(CCOCCNCc6ccc(-n7cc(NC(=O)c8coc(-c9ccnc(NCC%10CC%10)c9)n8)c(C(F)F)n7)cc6)C5)C4)cc3C2=O)C(=O)N1 (centres unmarked) [I-351]
> 1000 nM | C (<20% degradation) | C (<20% degradation) | C (<20% degradation) | – | Cn1cc(-c2nc(C(=O)Nc3cn(-c4ccc(CNCCOCCOCCNc5cccc6c5C(=O)N(C5CCC(=O)NC5=O)C6=O)cc4)nc3C(F)F)co2)cn1 (centres unmarked) [I-352]
> 1000 nM | C (<20% degradation) | C (<20% degradation) | C (<20% degradation) | – | O=C1CCC(N2C(=O)c3cccc(CCCNCc4ccc(-n5cc(NC(=O)c6coc(-c7ccncc7)n6)c(C(F)F)n5)cc4)c3C2=O)C(=O)N1 (centres unmarked) [I-366]
< 50 nM | B (>20-50% degradation) | A (>50% degradation) | A (>50% degradation) | – | O=C1CCC(N2C(=O)c3ccc(CCCOCCNCc4ccc(-n5cc(NC(=O)c6coc(-c7ccnc(NCC8CC8)c7)n6)c(C(F)F)n5)cc4)cc3C2=O)C(=O)N1 (centres unmarked) [I-381]
100 to 500 nM | C (<20% degradation) | B (>20-50% degradation) | A (>50% degradation) | – | O=C1CCC(N2C(=O)c3cccc(NC4CCN(CCOCCOCCOCCNCc5ccc(-n6cc(NC(=O)c7coc(-c8ccnc(NCC9CC9)c8)n7)c(C(F)F)n6)cc5)CC4)c3C2=O)C(=O)N1 (centres unmarked) [I-386]
100 to 500 nM | C (<20% degradation) | A (>50% degradation) | A (>50% degradation) | – | O=C1CCC(N2C(=O)c3ccc(N4CCN(CCOCCOCCOCCNCc5ccc(-n6cc(NC(=O)c7coc(-c8ccnc(NCC9CC9)c8)n7)c(C(F)F)n6)cc5)CC4)cc3C2=O)C(=O)N1 (centres unmarked) [I-394]
> 1000 nM | C (<20% degradation) | B (>20-50% degradation) | B (>20-50% degradation) | – | NC(=O)c1nn(-c2ccc(CNCCOCCOCCN3CCC(Nc4cccc5c4C(=O)N(C4CCC(=O)NC4=O)C5=O)CC3)cc2)cc1NC(=O)c1coc(-c2ccnc(NCC3CC3)c2)n1 (centres unmarked) [I-395]
< 50 nM | B (>20-50% degradation) | A (>50% degradation) | A (>50% degradation) | – | NC(=O)c1nn(-c2ccc(C(=O)NCCOCCOCCNc3cccc4c3C(=O)N(C3CCC(=O)NC3=O)C4=O)cc2)cc1NC(=O)c1coc(-c2ccnc(N)c2)n1 (centres unmarked) [I-427]
